Measurements reported in the supplement of paper PMC13380429.

Tests used:
Details in all cases: 72 h
U2OS [1] = assay: cell viability relative to DMSO; higher = less toxic
Vero E6 [2] = assay: as above
Calu-3 [3] = assay: as above
Caco-2 [4] = assay: as above
HepG2 [5] = assay: as above
U2OS [6] = assay: drug sensitivity score (DSS) for viability; higher = more toxic; extreme values may be limits of the assay
Vero E6 [7] = assay: as above
Calu-3 [8] = assay: as above
Caco-2 [9] = assay: as above
HepG2 [10] = assay: as above
U2OS [11] = assay: relative viability EC50 (midpoint between 100% and the lowest measured viability); higher = less toxic
Vero E6 [12] = assay: as above
Calu-3 [13] = assay: as above
Caco-2 [14] = assay: as above
HepG2 [15] = assay: as above

SMILES	cell viability (U2OS [1]; 1 nM)	cell viability (U2OS [1]; 10 nM)	cell viability (U2OS [1]; 100 nM)	cell viability (U2OS [1]; 1000 nM)	cell viability (U2OS [1]; 10000 nM)	cell viability (Vero E6 [2]; 1 nM)	cell viability (Vero E6 [2]; 10 nM)	cell viability (Vero E6 [2]; 100 nM)	cell viability (Vero E6 [2]; 1000 nM)	cell viability (Vero E6 [2]; 10000 nM)	cell viability (Calu-3 [3]; 1 nM)	cell viability (Calu-3 [3]; 10 nM)	cell viability (Calu-3 [3]; 100 nM)	cell viability (Calu-3 [3]; 1000 nM)	cell viability (Calu-3 [3]; 10000 nM)	cell viability (Caco-2 [4]; 1 nM)	cell viability (Caco-2 [4]; 10 nM)	cell viability (Caco-2 [4]; 100 nM)	cell viability (Caco-2 [4]; 1000 nM)	cell viability (Caco-2 [4]; 10000 nM)	cell viability (HepG2 [5]; 1 nM)	cell viability (HepG2 [5]; 10 nM)	cell viability (HepG2 [5]; 100 nM)	cell viability (HepG2 [5]; 1000 nM)	cell viability (HepG2 [5]; 10000 nM)	drug sensitivity score (U2OS [6])	drug sensitivity score (Vero E6 [7])	drug sensitivity score (Calu-3 [8])	drug sensitivity score (Caco-2 [9])	drug sensitivity score (HepG2 [10])	relative viability EC50 (U2OS [11])	relative viability EC50 (Vero E6 [12])	relative viability EC50 (Calu-3 [13])	relative viability EC50 (Caco-2 [14])	relative viability EC50 (HepG2 [15])
CC(C)[C@H](CO)Nc1nc(Nc2ccc(C(=O)O)c(Cl)c2)c2ncn(C(C)C)c2n1 [purvalanol-B]	97.1%	96.1%	101%	103%	107%	94%	96.4%	95.9%	94.9%	103%	111%	101%	106%	114%	95.5%	89.4%	91.9%	103%	96.8%	98.3%	93.5%	99.2%	99.1%	98.4%	98.9%	0	0	0	0	0	> 10 µM	> 10 µM	> 10 µM	> 10 µM	> 10 µM
Cc1ncc(CO)c(C=O)c1O [pyridoxal]	98.6%	95.7%	103%	103%	99.9%	102%	92.6%	96%	94.4%	102%	105%	91.4%	99.9%	99.7%	118%	114%	104%	104%	112%	92.1%	91%	81.7%	102%	94.1%	80%	0	0	0	0	1.3	> 10 µM	> 10 µM	> 10 µM	> 10 µM	> 10 µM
N#CN1CCCC1 [pyrrolidine-1-carbonitrile]	90.3%	98%	97.9%	104%	107%	99.6%	99.2%	98.2%	95.3%	105%	97.6%	104%	108%	107%	97.9%	103%	94.7%	95.4%	95.9%	110%	90.6%	91.1%	94.4%	95.2%	101%	0	0	0	0	0	> 10 µM	> 10 µM	> 10 µM	> 10 µM	> 10 µM
Cc1cccc(-c2n[nH]cc2-c2ccc3ncccc3n2)n1 [repsox]	96%	101%	92.4%	93.4%	94.8%	102%	97.8%	103%	89.5%	84.8%	95.1%	94.4%	98.6%	101%	78.4%	94%	98.2%	95%	105%	95%	100%	104%	98.8%	95.9%	91%	0	1	0.7	0	0	> 10 µM	> 10 µM	> 10 µM	> 10 µM	> 10 µM
CCOC(=O)C1=CCCC[C@H]1S(=O)(=O)Nc1ccc(F)cc1Cl [resatorvid]	100%	97.7%	96.9%	99.6%	94.7%	95.2%	103%	97.6%	88.4%	98.4%	94.8%	104%	92.9%	111%	96.2%	98.4%	98.9%	93.6%	99%	96.1%	104%	95.6%	109%	110%	98.6%	0	0	0	0	0	> 10 µM	> 10 µM	> 10 µM	> 10 µM	> 10 µM
CCOCc1nc2c(N)nc3ccccc3c2n1CC(C)(C)O [resiquimod]	99.7%	103%	101%	100%	97.8%	108%	101%	100%	99.9%	102%	102%	101%	94.7%	101%	92%	97.7%	96.7%	97.3%	90.4%	91.3%	103%	104%	103%	101%	94.5%	0	0	0	0	0	> 10 µM	> 10 µM	> 10 µM	> 10 µM	> 10 µM
Cc1cc2nc3c(=O)[nH]c(=O)nc-3n(C[C@H](O)[C@H](O)[C@H](O)COP(=O)(O)O)c2cc1C [riboflavin-5-phosphate-sodium]	102%	97.9%	94.4%	98.2%	91.9%	101%	102%	97.2%	95.7%	97.2%	91.4%	102%	92.7%	104%	99.8%	97.8%	104%	103%	100%	90.3%	97.8%	104%	101%	98%	108%	0	0	0	0	0	> 10 µM	> 10 µM	> 10 µM	> 10 µM	> 10 µM
CS(=O)(=O)c1ccc(C2=C(c3ccccc3)C(=O)OC2)cc1 [rofecoxib]	101%	98.9%	100%	98.8%	99.5%	93.6%	105%	88.4%	95.3%	102%	99.1%	100%	98%	101%	102%	96.4%	93.8%	100%	91.1%	92.7%	95.7%	104%	95.2%	103%	101%	0	0	0	0	0	> 10 µM	> 10 µM	> 10 µM	> 10 µM	> 10 µM
O=C1CCC2CCC(=O)N12 [rolziracetam]	98%	100%	101%	96.7%	102%	94.9%	105%	97.8%	102%	97.5%	91%	87%	99.1%	103%	96.3%	79.1%	112%	82.8%	98.6%	89.1%	114%	104%	96.1%	108%	116%	0	0	0	0	0	> 10 µM	> 10 µM	> 10 µM	> 10 µM	> 10 µM
C1CCN2C[C@@H]3C[C@@H](CN4CCCC[C@@H]34)[C@H]2C1 [sparteine-sulfate]	105%	99.7%	104%	97.6%	100%	97.4%	98.7%	82.1%	93.6%	105%	114%	104%	108%	116%	86.7%	84.7%	87.4%	81.4%	78.5%	105%	94.9%	101%	102%	89%	102%	0	0	0	2.6	0	> 10 µM	> 10 µM	> 10 µM	> 10 µM	> 10 µM
O=C(CCBr)N1CC[N+]2(CC1)CC[N+]1(CCN(C(=O)CCBr)CC1)CC2 [spirobromin]	96.4%	95.2%	97.3%	99.4%	97.7%	91.2%	101%	96.4%	91.5%	106%	110%	100%	94.7%	110%	100%	103%	87%	94.2%	109%	108%	91.7%	91.5%	96.6%	106%	96.4%	0	0	0	0	0	> 10 µM	> 10 µM	> 10 µM	> 10 µM	> 10 µM
Cc1cn([C@H]2C=C[C@@H](CO)O2)c(=O)[nH]c1=O [stavudine]	102%	99.7%	103%	96.7%	106%	92.7%	94.5%	95.9%	104%	105%	94.1%	102%	92.9%	101%	108%	92.7%	92.4%	82.9%	113%	88.6%	88.4%	91.5%	93.8%	98.4%	95%	0	0	0	0	0	> 10 µM	> 10 µM	> 10 µM	> 10 µM	> 10 µM
O=C(O)CCC(=O)O [succinic-acid]	95.5%	102%	97.7%	102%	101%	104%	96.6%	95.5%	98.4%	104%	97.2%	105%	98.5%	101%	97.5%	92.2%	89.7%	86%	94.8%	93.5%	110%	100%	110%	101%	99.8%	0	0	0	0	0	> 10 µM	> 10 µM	> 10 µM	> 10 µM	> 10 µM
CN[C@H](C(=O)N[C@H](C(=O)N(C)[C@H](/C=C(\C)C(=O)O)C(C)C)C(C)(C)C)C(C)(C)c1ccccc1 [taltobulin]	73.8%	31.8%	17.3%	18.5%	17.7%	88.5%	39.6%	25.2%	17.9%	18.1%	82.8%	58.4%	46.7%	39.6%	38.8%	68.3%	45.6%	34.3%	35%	35.9%	73.5%	28.9%	28.6%	34.8%	33.1%	36.3	33.4	24.3	29.8	35	0.0021 µM	0.0044 µM	0.0037 µM	0.0011 µM	0.0012 µM
